Like-named read-outs stand apart in the source and are kept apart here.
Columns and labels:
[1] = test system: African green monkey kidney cells (Vero-E6 cells); assay: Toxicity to African green monkey kidney cells (Vero-E6), CCK-8, 48 hours; conditions: Vero-E6 cells; for TC0 (maximum non-toxic concentration): 48 hours, CCK-8
Text: (§1) • (1) Medicaments: experimental group, tannic acid; control group, Remdesivir (purchased from Shanghai TopScience Technology Co., Ltd.); • (2) Cell line: African green monkey kidney cells (Vero-E6 cells); • (3) Others: MEM medium; 96-well culture plate. 2. […] 3. Experimental results
(§2) • (1) Medicaments: in the experimental group, tannic acid was mixed with catechin, resveratrol, and zinc gluconate according to a mass ratio of 1:1 to prepare into three pharmaceutical compositions; in the control group, Remdesivir (purchased from Shanghai TopScience Technology Co., Ltd.); • (2) Other experimental materials were the same as those in Embodiment 1. 2. Experimental steps: refer to Embodiment 1. 3. Experimental results

[2] = as above; conditions: African green monkey
Text: as §1, §2

SARS-CoV-2 virus [3] = assay: microbe, parasite or virus in culture
SARS-CoV-2 virus [4] = conditions: SARS-CoV-2, Vero-E6 cells; […]
in vitro = conditions: dog
Procedure: (§3) 2. […] The maximum non-toxic concentration (TC0) of the medicament was taken as the minimum dilution times of the medicament without cytopathic changes, and the median toxic concentration (TC50) of the medicament was calculated by the Reed-Muench formula. 3. Experimental results
(§4) • (1) Medicaments: same as Embodiment 5; • (2) Other experimental materials were the same as those in Embodiment 3. 2. Experimental procedure: refer to Embodiment 3. 3. Experimental results

Influenza A H1N1 virus = assay: microbe, parasite or virus in culture; conditions: H1N1, MDCK
[5] = test system: canine kidney epithelial cells (MDCK cells); assay: Toxicity to canine kidney epithelial cells (MDCK), cytopathic changes; conditions: MDCK cells, cytopathic changes
Procedure: as §3, §4

[6] = Severe acute respiratory syndrome coronavirus 2, Vero C1008, 48 h, read-out: IC50 (median inhibitory concentration)

| Structure (SMILES) | TC0 (maximum non-toxic concentration) [1] [µM] | TC0 ([1]; compositions, mass ratio 1:1) [µg/mL] | TC50 ([1]; compositions, mass ratio 1:1) [µg/mL] | CC50 at 48 h [2] [µM] | IC50 (SARS-CoV-2 virus [3]; Severe acute respiratory syndrome coronavirus 2, Vero C1008) [µg/mL] | IC50 (SARS-CoV-2 virus [3]; [6]) [nM] | SI (SARS-CoV-2 virus [4]) | CC50 (in vitro) [mM] | IC50 (Influenza A H1N1 virus; 48 h, read-out: IC50 (median inhibitory concentration)) [µM] | IC50 (Influenza A H1N1 virus; Influenza A H1N1, MDCK cells, compositions, mass ratio 1:1) [µg/mL] | TC0 (maximum non-toxic concentration) [5] [µM] |
| --- | --- | --- | --- | --- | --- | --- | --- | --- | --- | --- | --- |
| CCC(CC)COC(=O)[C@H](C)N[P@](=O)(OC[C@H]1O[C@@](C#N)(c2ccc3c(N)ncnn23)[C@H](O)[C@@H]1O)Oc1ccccc1 [Remdesivir] | 52.8 | 31.816 | 63.633 | 106 | 0.392 ± 0.003 | 651 ± 13 | 162.21 |  |  |  |  |
| NC(=O)c1ncn([C@@H]2O[C@H](CO)[C@@H](O)[C@H]2O)n1 [Ribavirin] |  |  |  |  |  |  |  | 1.31 | 22.6 ± 0.04 | 5.52 ± 0.03 |  |
| O=C(OC[C@H]1O[C@@H](OC(=O)c2cc(O)c(O)c(OC(=O)c3cc(O)c(O)c(O)c3)c2)[C@H](OC(=O)c2cc(O)c(O)c(OC(=O)c3cc(O)c(O)c(O)c3)c2)[C@@H](OC(=O)c2cc(O)c(O)c(OC(=O)c3cc(O)c(O)c(O)c3)c2)[C@@H]1OC(=O)c1cc(O)c(O)c(OC(=O)c2cc(O)c(O)c(O)c2)c1)c1cc(O)c(O)c(OC(=O)c2cc(O)c(O)c(O)c2)c1 [Tannic acid, tannic acid] | 11.8 |  |  | 23.5 |  | 3.2 |  | 0.752 |  |  | 376.21 |

Reference: patent US12064444B2, “Application of tannic acid in preparation of medicament against respiratory viruses” (priority 2020, dated 2024)
